These results are taken from paper PMC10221159, “Investigation of N-Acetyltransferase 2-Mediated Drug Interactions of Amifampridine: In Vitro and In Vivo Evidence of Drug Interactions with Acetaminophen” (Pharmaceutics, 2023).

On the set-up of data set [1]: method as in earlier work. As to conditions: metabolite of amifampridine; cited from earlier work.
Data set [2] is described as follows: Tissue distribution of amifampridine and 3-N-acetylamifampridine in rats. It is filed as in vivo, rat. As to conditions: rat, 60 min after oral amifampridine 2 mg/kg. The protocol: To investigate the effects of acetaminophen on the tissue distribution of amifampridine and 3-N-acetylamifampridine, rats were sacrificed at 60 min after administration of amifampridine in control and acetaminophen-treated rats (n = 6) as mentioned above, and the tissues, including liver, kidney, heart, lungs, spleen, brain, and muscle tissues, were obtained. Tissue samples were homogenized using a Wheaton^TM Dounce tissue grinder (Wheaton Millipore, Billerica, MA, USA) after adding a three-fold volume of PBS. An amount of 100 μL of tissue homogenates was transferred to the tube and 200 μL of IS solution was then added and vortexed followed by centrifugation at 14,000 rpm for 15 min at 4 °C. The supernatants were transferred to LC vials for quantification. For muscle samples, the supernatant was concentrated using a desiccator and reconstituted with the mobile phase solvent.

Data set [3] is described as follows: In vivo pharmacokinetic interaction study in rats (plasma). Further details: species or system rat. As to conditions: for AUC(0-inf) / AUC(0-t) / Cmax / MRT / Tmax / half-life / CL renal: male, Sprague-Dawley, rat, po, 2 mg/kg, oral amifampridine 2 mg/kg; for AUC(0-inf) / AUC(0-t) / Cmax / MRT / Tmax / half-life: plasma; for CL renal: urine and plasma, renal clearance. The protocol: Male Sprague Dawley (SD) rats (7–8 weeks old, 260–330 g) were purchased from Orient Bio, Inc. (Seongnam, Korea). The rats were housed under a light/dark cycle for 12 h and were left for at least a week before the experiment to adapt to the laboratory environment. Water and food were provided ad libitum. The rats were fasted overnight with free access to water prior to pharmacokinetic studies. The protocols for animal experiments were approved in accordance with the Guidelines for Animal Care and Use of Gachon University (approval no.: GIACUC-R2021006; 13 May 2021).
The rats were anesthetized with a mixture of Rompun and Zoletil by intramuscular injection and received an intraperitoneal injection of vehicle (40:60 PEG400:normal saline; n = 8) or 100 mg/kg acetaminophen (n = 8). After 10 min, 2 mg/kg amifampridine (dissolved in saline) was administered orally. Blood samples were collected at 0, 5, 15, 30, 60, 90, 120, 240, and 360 min and centrifuged at 14,000 rpm for 15 min at 4 °C. For analysis of amifampridine and 3-N-acetylamifampridine, 50 μL of plasma samples was mixed with 100 μL IS solution (5 ng/mL ondansetron in acetonitrile) and the mixture was vortexed followed by centrifugation at 14,000 rpm for 15 min at 4 °C. For the analysis of acetaminophen, 200 μL of IS (tolbutamide 200 ng/mL in methanol) was added to the plasma samples which were diluted 10-fold using the blank plasma and then vortexed for one minute. Further, the samples were centrifuged at 14,000 rpm for 15 min at 4 °C. The supernatants were transferred to LC vials for quantification.
Non-compartment analysis (NCA) was performed to calculate the pharmacokinetic parameters for the in vivo study using WinNonlin (Version 8.3. (Pharsight Corporation, Mountain View, CA, USA)). The area under the plasma concentration–time curve from time 0 to infinity (AUCinf) was calculated by the linear trapezoidal method and standard extrapolation using λ, where λ represents the slope of the terminal phase in a semi-log graph for plasma concentration–time profiles. Renal clearance (CLr) was determined by dividing the accumulated amount of drug excreted in the urine by AUCinf.

The conditions of data set [4]: humans, cited from earlier work.
The nature of data set [5]: Urinary excretion of amifampridine and 3-N-acetylamifampridine in rats. It is filed as in vivo, rat. As to conditions: for amount excreted into the urine for up to 4 h: oral amifampridine 2 mg/kg. The protocol: Urine samples were collected at intervals of 0–4, 4–8, and 8–24 h after the administration of amifampridine to control and acetaminophen-treated rats (n = 6), as described above, and were diluted 500-fold with potassium phosphate buffer. An amount of 200 μL of IS was then added to the samples and vortexed for a minute. After centrifugation at 14,000 rpm for 15 min at 4 °C, the supernatant was transferred into vials for quantification of amifampridine and 3-N-acetylamifampridine.

Data set [6] has as its system NAT2. As to conditions: previous report; cited from earlier work.
Data set [7] has as its target T1, NAT2 (Homo sapiens, UniProt P11245).
T1 construct: in vitro using S9 fractions obtained from human, rat, and mouse livers; from tissue; host or cells: human liver S9 fraction
T1 sequence (P11245 1-290): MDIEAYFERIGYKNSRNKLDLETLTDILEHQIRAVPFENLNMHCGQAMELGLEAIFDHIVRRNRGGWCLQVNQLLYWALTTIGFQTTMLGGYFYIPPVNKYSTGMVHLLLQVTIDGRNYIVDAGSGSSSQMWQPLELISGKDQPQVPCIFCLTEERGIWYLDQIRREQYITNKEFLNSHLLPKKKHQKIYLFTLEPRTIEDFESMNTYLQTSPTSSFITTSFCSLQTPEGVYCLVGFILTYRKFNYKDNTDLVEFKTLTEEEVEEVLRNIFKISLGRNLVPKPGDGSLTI
The data set can be described thus: Inhibition of amifampridine acetylation to 3-N-acetylamifampridine by NAT2 inhibitors, human liver S9 fraction. As to conditions: amifampridine 50 μM, 15 min. It is filed as biochemical.
Experimental: Then, the NAT2 inhibitors (final concentrations of 0, 1, 5, 10, 50, 100, 500, 1000, and 5000 μM) and amifampridine (final concentration of 50 μM) were added to the reaction mixture and incubated for 15 min at 37 °C. An amount of 50 μL of the mixture was then transferred into the tube and mixed with 100 μL of IS (5 ng/mL ondansetron in acetonitrile). The mixture was vortexed and centrifuged at 14,000 rpm for 15 min at 4 °C. The supernatant was transferred into vials for HPLC-MS/MS analysis and the concentration of 3-N-acetylamifampridine was determined.

Setting [8] is: acetaminophen-treated group (100 mg/kg ip).

Where two headings read alike, the source gives them in different places.

For orientation: AUC(0-inf) means total exposure, with the tail of the curve extrapolated. Low values mean low exposure, high ones high exposure. One may read the AUC(0-t) as the area under the concentration-time curve up to a stated or last time point. Low values mean low exposure, high ones high exposure. As usually defined, the Cmax is the peak of the concentration-time curve. The term MRT denotes the average time that molecules of a dose stay in the body. By Tmax is commonly meant the time at which the peak concentration occurs. The term half-life denotes the time in which the quantity being followed falls by half. Read a high half-life as slow loss. In the case of `CC(=O)Nc1cnccc1N` [3-N-acetylamifampridine], the pharmacological activity result in data set [1] was “pharmacologically inactive”. For the same compound, the Kp at 1 h in data set [2] (Sprague Dawley, brain, acetaminophen 100 mg/kg, read-out: Tissue partition coefficient (Kp), Brain) was 0.2 ± 0.2; in data set [2] (Sprague Dawley, brain, control, read-out: Tissue partition coefficient (Kp), Brain) it was 0.2 ± 0.2; in data set [2] (Sprague Dawley, heart, acetaminophen 100 mg/kg, read-out: Tissue partition coefficient (Kp), Heart), 1.6 ± 0.4; in data set [2] (Sprague Dawley, heart, control, read-out: Tissue partition coefficient (Kp), Heart) it was 1.8 ± 0.5; in data set [2] (Sprague Dawley, lungs, acetaminophen 100 mg/kg, read-out: Tissue partition coefficient (Kp), Lungs), 2.7 ± 0.9; in data set [2] (Sprague Dawley, lungs, control, read-out: Tissue partition coefficient (Kp), Lungs), 2.9 ± 0.5. Moreover, the Kp at 1 h is 3 ± 0.9 in data set [2] (Sprague Dawley, spleen, acetaminophen 100 mg/kg, read-out: Tissue partition coefficient (Kp), Spleen); 3.3 ± 0.7 in data set [2] (Sprague Dawley, spleen, control, read-out: Tissue partition coefficient (Kp), Spleen); 5.1 ± 1.6 in data set [2] (male, Sprague-Dawley, kidney, acetaminophen 100 mg/kg, read-out: Tissue partition coefficient (Kp), Kidney); 16.6 ± 12.4 in data set [2] (male, Sprague-Dawley, kidney, control, read-out: Tissue partition coefficient (Kp), Kidney); 3 ± 0.8 in data set [2] (male, Sprague-Dawley, liver, acetaminophen 100 mg/kg, read-out: Tissue partition coefficient (Kp), Liver); 6.5 ± 5 in data set [2] (male, Sprague-Dawley, liver, control, read-out: Tissue partition coefficient (Kp), Liver). In addition, the Kp at 1 h turned out to be 0.9 ± 0.3 in data set [2] (male, Sprague-Dawley, muscle, acetaminophen 100 mg/kg, read-out: Tissue partition coefficient (Kp), Muscle) and 0.9 ± 0.2 in data set [2] (male, Sprague-Dawley, muscle, control, read-out: Tissue partition coefficient (Kp), Muscle). Also, in data set [3] (acetaminophen-treated vs control rats), the “change of AUCinf after pre-treatment with acetaminophen” value is “not significantly altered”. Moreover, in data set [3] (after pre-treatment with acetaminophen vs control, p < 0.05), the “decrease in Cmax” value is reported as 27.11%. Besides, in data set [3] (after pretreatment with acetaminophen), the “decrease of AUCm/AUCp” value stood at 65%. Further, the AUC(0-inf) in data set [3] (setting [8]) and in data set [3] (control group) was 3690 ng·h/mL each time. The figures for the exposure AUC(0-t) in data set [3] (setting [8]) and in data set [3] (control group) were 3010 ng·h/mL and 3410 ng·h/mL, respectively. Also, the Cmax in data set [3] (setting [8]) was 880 ± 260 ng/mL; in data set [3] (control group) it was 1210 ± 240 ng/mL. Moreover, the values for the MRT in data set [3] (setting [8]) and in data set [3] (control group) were 3.84 h and 2.65 h, respectively. Also, the Tmax in data set [3] (setting [8]) was 1.5 h; in data set [3] (control group), 1.31 h. In addition, the half-life in data set [3] (setting [8]) came to 2.38 ± 0.91 h; in data set [3] (control group) it was 1.42 ± 0.36 h. The CL renal turned out to be 3.58 ± 0.6 mL/min in data set [3] (setting [8]) and 2.94 ± 1.55 mL/min in data set [3] (control group). In addition, the “dose excreted via the urine within 24 h” value in data set [4] (after administration of amifampridine) is given as 74.0–81.7%. Also, the elimination half-life in data set [4] was approximately 4 h. In data set [5] (control vs acetaminophen-treated rats), the “total amount excreted via urine for up to 24 h, difference between groups” value is recorded as “not significantly different”. Further, the “amount excreted into the urine for up to 4 h” value in data set [5] (after pre-treatment with acetaminophen) is 12.2%; in data set [5] (control rats), 49.9%.

As usually defined, the IC50 is the concentration at which inhibition is half-maximal. With `COc1cc(C(C)=O)ccc1O` [apocynin], the IC50 in the data set with NAT2 [6] is 690 µM; against NAT2 [7] it was 844 ± 160 µM.

Regarding `CN/C(=N/CCSCc1nc[nH]c1C)NC#N` [cimetidine], the 50% inhibitory concentration (IC50) was 2060 µM in the data set on NAT2 [6] and 2450 ± 258 µM at NAT2 [7].
